Measurements from patent publication US12268674B2, “Mi-2β inhibitor as an immunotherapy agent” (BioVentures, LLC, priority 2021, dated 2025).

Columns and labels:
Experiment in all cases: ATPase profile (ATP acyl phosphate probe)
Format in all cases: binding
KIAA0564 = biological target: T1, KIAA0564 (Homo sapiens, UniProt A3KMH1); conditions: KIAA0564, SEQ ID NO: 113, ATP BS
T1 construct: to get the native cell lysate; endogenous in cells; host or cells: A375

ACLY = biological target: T2, ACLY (Homo sapiens, UniProt P53396)
T2 construct: to get the native cell lysate; host or cells: A375 cell lysate
T2 sequence (P53396 whole entry): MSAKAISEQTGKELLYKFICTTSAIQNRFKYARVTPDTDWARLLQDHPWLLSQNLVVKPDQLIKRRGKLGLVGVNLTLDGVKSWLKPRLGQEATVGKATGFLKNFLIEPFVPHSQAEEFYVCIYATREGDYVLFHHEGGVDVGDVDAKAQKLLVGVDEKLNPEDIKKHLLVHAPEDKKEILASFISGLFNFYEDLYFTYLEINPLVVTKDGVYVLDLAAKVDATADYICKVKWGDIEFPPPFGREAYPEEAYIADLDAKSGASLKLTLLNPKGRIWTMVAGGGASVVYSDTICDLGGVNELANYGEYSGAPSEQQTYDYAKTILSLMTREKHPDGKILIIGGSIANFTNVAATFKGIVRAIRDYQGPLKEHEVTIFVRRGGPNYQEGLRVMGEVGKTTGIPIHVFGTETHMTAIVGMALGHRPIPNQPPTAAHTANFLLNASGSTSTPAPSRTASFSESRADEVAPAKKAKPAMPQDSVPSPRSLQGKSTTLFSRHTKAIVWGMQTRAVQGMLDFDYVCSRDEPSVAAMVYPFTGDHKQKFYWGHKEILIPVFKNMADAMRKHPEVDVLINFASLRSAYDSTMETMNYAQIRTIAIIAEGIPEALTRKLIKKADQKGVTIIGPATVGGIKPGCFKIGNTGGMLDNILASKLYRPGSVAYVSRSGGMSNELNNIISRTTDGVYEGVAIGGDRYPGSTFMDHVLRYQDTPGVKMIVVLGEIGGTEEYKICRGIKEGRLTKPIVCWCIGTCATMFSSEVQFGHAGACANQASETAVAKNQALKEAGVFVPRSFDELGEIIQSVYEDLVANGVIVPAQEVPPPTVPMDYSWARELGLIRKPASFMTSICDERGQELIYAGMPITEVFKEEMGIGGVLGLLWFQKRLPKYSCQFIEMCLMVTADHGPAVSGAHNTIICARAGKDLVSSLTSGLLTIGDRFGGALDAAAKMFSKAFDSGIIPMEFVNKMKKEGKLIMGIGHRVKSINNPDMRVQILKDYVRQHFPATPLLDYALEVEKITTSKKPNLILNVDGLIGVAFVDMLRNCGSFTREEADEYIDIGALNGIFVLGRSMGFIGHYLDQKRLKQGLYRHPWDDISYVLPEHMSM

ENPP1 = biological target: T3, ENPP1 (Homo sapiens, UniProt P22413); conditions: ENPP1, SEQ ID NO: 76, ATP BS
T3 construct: endogenous in cells; host or cells: A375 cell lysate

TRAP1 = biological target: T4, TRAP1 (Homo sapiens, UniProt Q12931)
T4 construct: to get the native cell lysate; endogenous in cells; host or cells: A375 cell lysate
T4 sequence (Q12931 60-704): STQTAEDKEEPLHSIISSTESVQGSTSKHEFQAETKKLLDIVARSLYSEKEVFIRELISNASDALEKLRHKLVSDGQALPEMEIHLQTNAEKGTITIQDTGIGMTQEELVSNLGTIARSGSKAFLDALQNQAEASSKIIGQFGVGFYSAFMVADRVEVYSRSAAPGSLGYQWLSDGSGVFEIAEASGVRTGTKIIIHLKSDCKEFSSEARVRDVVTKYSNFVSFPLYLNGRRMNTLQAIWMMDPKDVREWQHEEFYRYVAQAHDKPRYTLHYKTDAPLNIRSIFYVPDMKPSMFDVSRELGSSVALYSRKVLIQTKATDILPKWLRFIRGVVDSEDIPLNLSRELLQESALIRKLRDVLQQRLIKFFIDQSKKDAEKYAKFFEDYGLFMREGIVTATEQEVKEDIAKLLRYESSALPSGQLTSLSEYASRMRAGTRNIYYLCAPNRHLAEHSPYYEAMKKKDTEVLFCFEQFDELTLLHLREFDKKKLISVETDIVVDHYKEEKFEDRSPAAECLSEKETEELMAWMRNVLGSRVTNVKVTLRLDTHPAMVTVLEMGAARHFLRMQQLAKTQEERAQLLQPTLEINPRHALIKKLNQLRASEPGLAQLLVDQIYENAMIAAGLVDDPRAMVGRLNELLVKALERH

ATIC = biological target: T5, ATIC (Homo sapiens, UniProt P31939); conditions: SEQ ID NO: 47, ATP BS
T5 construct: to get the native cell lysate; host or cells: A375 cell lysate

ABCD4 = biological target: T6, ABCD4 (Homo sapiens, UniProt O14678); conditions: ABCD4, SEQ ID NO: 14, ATP BS
T6 construct: to get the native cell lysate; host or cells: A375 cell lysate
T6 sequence (O14678 whole entry): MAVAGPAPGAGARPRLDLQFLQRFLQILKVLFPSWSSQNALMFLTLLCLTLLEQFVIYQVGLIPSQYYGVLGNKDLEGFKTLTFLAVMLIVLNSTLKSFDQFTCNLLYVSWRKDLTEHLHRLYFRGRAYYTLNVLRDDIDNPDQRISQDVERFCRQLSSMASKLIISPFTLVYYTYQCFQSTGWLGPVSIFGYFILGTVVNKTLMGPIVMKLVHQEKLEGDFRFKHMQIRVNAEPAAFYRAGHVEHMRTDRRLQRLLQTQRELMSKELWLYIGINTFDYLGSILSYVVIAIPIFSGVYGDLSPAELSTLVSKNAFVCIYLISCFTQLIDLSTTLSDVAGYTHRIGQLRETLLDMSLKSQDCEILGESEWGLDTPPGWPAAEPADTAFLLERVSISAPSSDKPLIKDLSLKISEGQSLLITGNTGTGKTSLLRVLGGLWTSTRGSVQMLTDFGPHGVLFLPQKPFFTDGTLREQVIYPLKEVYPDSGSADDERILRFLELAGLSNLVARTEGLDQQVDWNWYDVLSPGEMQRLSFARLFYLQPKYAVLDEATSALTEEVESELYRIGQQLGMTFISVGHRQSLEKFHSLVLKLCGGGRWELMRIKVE

SLC25A24 = biological target: T7, SLC25A24 (Homo sapiens, UniProt Q6NUK1); conditions: SLC25A24, SEQ ID NO: 192, ATP BS
T7 construct: to get the native cell lysate; endogenous in cells; host or cells: A375 cell lysate
T7 sequence (Q6NUK1 whole entry): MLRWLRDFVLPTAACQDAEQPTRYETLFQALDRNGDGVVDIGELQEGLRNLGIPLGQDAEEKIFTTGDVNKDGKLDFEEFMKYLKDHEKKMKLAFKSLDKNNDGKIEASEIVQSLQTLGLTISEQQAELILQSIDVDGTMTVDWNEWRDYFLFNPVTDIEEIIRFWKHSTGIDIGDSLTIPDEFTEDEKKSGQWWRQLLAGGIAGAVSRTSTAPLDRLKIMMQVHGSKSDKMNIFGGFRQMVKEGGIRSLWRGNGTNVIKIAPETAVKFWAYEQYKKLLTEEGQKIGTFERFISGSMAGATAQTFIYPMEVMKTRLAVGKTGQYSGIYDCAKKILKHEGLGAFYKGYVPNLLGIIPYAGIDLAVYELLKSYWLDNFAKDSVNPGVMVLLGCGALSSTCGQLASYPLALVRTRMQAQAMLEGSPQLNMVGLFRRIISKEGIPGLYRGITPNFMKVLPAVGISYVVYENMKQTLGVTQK

[1] = biological target: T8, (Homo sapiens, UniProt Q9HCK8); conditions: CIID8, SEQ ID NO: 57, ATP BS
T8 construct: to get the native cell lysate; host or cells: A375 cell lysate

PSMC3 = biological target: T9, PSMC3 (Homo sapiens, UniProt P17980); conditions: PSMC3, SEQ ID NO: 175, ATP BS
T9 construct: to get the native cell lysate; endogenous in cells; host or cells: A375 cell lysate

HDDC3 = biological target: T10, HDDC3 (Homo sapiens, UniProt Q8N4P3)
T10 construct: to get the native cell lysate; endogenous in cells; host or cells: A375
T10 sequence (Q8N4P3 whole entry): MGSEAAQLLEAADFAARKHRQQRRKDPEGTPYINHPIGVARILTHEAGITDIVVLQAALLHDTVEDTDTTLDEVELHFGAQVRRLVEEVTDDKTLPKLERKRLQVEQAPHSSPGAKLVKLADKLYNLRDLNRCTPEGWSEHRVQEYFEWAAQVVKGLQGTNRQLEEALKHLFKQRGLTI

SNRNP200 = biological target: T11, SNRNP200 (Homo sapiens, UniProt O75643); conditions: SNRNP200, SEQ ID NO: 196, ATP BS
T11 construct: to get the native cell lysate; endogenous in cells; host or cells: A375 cell lysate

NTPCR = biological target: T12, NTPCR (Homo sapiens, UniProt Q9BSD7); conditions: SEQ ID NO: 141, ATP BS
T12 construct: to get the native cell lysate; endogenous in cells; host or cells: A375
T12 sequence (Q9BSD7 whole entry): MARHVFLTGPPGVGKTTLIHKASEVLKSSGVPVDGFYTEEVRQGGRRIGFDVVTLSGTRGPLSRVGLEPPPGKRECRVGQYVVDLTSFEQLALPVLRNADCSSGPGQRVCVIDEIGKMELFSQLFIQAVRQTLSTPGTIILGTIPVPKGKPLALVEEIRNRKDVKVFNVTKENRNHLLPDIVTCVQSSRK

ABCB6 = biological target: T13, ABCB6 (Homo sapiens, UniProt Q9NP58); conditions: ABCB6, SEQ ID NO: 3, ATP BS
T13 construct: to get the native cell lysate; host or cells: A375 cell lysate
T13 sequence (Q9NP58 whole entry): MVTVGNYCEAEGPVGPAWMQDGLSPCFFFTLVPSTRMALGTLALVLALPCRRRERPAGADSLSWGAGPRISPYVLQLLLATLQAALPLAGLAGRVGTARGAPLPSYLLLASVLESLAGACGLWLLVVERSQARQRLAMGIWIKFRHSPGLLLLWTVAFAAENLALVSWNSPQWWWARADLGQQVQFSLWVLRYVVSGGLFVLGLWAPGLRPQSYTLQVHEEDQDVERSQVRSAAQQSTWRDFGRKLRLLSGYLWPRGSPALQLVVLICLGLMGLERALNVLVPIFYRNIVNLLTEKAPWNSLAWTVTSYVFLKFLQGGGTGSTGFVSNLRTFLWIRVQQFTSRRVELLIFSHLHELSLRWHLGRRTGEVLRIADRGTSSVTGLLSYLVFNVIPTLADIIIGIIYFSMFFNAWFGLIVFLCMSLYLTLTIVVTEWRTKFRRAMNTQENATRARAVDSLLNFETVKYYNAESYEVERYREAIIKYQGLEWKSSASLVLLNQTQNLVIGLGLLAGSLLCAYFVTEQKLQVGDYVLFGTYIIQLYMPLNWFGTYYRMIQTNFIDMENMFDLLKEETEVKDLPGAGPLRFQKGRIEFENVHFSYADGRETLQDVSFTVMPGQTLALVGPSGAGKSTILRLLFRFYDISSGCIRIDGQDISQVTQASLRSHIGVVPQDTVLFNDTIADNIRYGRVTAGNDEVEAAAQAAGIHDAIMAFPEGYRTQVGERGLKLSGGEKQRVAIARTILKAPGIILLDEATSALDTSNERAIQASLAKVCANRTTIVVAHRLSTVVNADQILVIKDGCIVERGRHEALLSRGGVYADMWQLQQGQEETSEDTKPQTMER

[2] = system: ACTA2, ACTB, ACTBL2, ACTC1, ACTG1; conditions: ACTBL2, ACTC1, ACTG1, SEQ ID NO: 24, ATP BS
EPRS = biological target: T14, EPRS (Homo sapiens, UniProt P07814); conditions: SEQ ID NO: 77, ATP BS
T14 construct: endogenous in cells; host or cells: A375 cell lysate

PEX1 = biological target: T15, PEX1 (Homo sapiens, UniProt O43933); conditions: PEX1, SEQ ID NO: 156, ATP BS
T15 construct: to get the native cell lysate; endogenous in cells; host or cells: A375 cell lysate

AHCY = biological target: T16, AHCY (Homo sapiens, UniProt P23526); conditions: SEQ ID NO: 30, ATP BS
T16 construct: to get the native cell lysate; host or cells: A375 cell lysate

HYOU1 = biological target: T17, HYOU1 (Homo sapiens, UniProt Q9Y4L1)
T17 construct: to get the native cell lysate; endogenous in cells; host or cells: A375
T17 sequence (Q9Y4L1 33-999): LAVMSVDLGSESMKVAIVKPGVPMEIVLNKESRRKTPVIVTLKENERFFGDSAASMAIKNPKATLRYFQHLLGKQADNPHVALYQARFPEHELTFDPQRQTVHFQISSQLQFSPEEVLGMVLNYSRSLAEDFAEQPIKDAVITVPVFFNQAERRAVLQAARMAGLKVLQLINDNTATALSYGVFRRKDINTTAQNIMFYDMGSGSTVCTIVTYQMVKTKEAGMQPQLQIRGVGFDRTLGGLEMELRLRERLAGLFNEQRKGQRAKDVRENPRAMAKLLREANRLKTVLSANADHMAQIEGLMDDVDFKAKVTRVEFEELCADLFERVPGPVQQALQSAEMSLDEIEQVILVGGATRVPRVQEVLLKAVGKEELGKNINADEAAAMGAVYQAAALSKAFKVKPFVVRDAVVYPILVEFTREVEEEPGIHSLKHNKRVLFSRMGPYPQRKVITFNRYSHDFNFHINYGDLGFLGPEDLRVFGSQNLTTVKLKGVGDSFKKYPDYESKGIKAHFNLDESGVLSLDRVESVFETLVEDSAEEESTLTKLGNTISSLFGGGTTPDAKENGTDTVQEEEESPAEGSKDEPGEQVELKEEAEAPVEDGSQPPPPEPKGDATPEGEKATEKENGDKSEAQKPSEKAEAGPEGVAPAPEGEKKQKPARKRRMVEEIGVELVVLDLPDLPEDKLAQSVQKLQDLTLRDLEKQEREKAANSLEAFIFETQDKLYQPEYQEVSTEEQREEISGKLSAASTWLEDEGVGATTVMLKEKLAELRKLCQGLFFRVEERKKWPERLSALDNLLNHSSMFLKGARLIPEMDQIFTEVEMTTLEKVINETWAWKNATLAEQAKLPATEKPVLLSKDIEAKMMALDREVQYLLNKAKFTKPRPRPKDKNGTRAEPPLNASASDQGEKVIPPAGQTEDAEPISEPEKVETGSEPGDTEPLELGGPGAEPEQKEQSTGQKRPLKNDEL

GART = biological target: T18, GART (Homo sapiens, UniProt P22102)
T18 construct: endogenous in cells; host or cells: A375 cell lysate
T18 sequence (P22102 1-1010): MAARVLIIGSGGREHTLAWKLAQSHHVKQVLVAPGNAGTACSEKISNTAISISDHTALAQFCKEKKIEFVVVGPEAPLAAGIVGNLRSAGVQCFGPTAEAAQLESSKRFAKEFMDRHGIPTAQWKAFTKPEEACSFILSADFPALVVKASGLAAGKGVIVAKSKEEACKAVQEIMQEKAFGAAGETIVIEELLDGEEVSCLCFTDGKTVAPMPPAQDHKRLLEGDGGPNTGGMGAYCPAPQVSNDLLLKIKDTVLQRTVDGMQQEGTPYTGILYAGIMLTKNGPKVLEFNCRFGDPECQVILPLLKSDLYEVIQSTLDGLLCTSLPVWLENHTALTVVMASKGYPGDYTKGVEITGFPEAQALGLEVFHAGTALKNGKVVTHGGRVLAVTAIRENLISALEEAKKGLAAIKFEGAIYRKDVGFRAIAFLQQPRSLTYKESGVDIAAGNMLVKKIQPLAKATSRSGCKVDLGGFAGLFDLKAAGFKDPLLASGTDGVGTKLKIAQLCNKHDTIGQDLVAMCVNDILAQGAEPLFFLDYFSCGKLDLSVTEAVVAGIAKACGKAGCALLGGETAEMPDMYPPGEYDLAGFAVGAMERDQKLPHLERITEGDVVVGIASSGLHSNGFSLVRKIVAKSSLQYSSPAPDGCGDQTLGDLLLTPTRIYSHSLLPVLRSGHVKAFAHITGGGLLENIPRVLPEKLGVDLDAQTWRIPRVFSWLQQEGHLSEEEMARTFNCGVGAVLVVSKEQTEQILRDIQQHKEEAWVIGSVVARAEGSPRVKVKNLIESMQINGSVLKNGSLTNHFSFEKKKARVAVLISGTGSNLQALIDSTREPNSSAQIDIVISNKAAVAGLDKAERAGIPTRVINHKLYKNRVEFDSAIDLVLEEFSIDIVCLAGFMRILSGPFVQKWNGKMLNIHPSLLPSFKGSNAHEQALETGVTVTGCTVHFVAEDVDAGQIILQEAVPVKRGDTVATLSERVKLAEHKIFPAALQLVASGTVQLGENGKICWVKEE

LIG1 = biological target: T19, LIG1 (Homo sapiens, UniProt P18858); conditions: LIG1, SEQ ID NO: 114, ATP BS
T19 construct: to get the native cell lysate; endogenous in cells; host or cells: A375

Cn1c(=O)[nH]c2ccc(-c3cccc(C(=O)NC4CCn5ccnc5C4)c3)cc21 (centres unmarked) [Z36-MP5, 3-(3-methyl-2-oxo-2,3-dihydro-1H-benzo[d]imidazol-5-yl)-N-(5,6,7,8-tetrahydroimidazo[1,2-a]pyridin-7-yl)benzamide]
Inhibition (%) by 1 μM Z36-MP5 (KIAA0564): 11.07% | Inhibition (%) by 1 μM Z36-MP5 (ACLY; SEQ ID NO: 22, ATP BS): −6.87% | Inhibition (%) by 1 μM Z36-MP5 (ACLY; SEQ ID NO: 23, ATP BS): 2.00% | Inhibition (%) by 1 μM Z36-MP5 (ENPP1): 8.04% | Inhibition (%) by 1 μM Z36-MP5 (TRAP1; TRAP1, SEQ ID NO: 209, ATP BS): −10.78% | Inhibition (%) by 1 μM Z36-MP5 (TRAP1; TRAP1, SEQ ID NO: 210, ATP BS): −11.57% | Inhibition (%) by 1 μM Z36-MP5 (ATIC): 4.08% | Inhibition (%) by 1 μM Z36-MP5 (ABCD4): 11.24% | Inhibition (%) by 1 μM Z36-MP5 (SLC25A24): 11.88% | Inhibition (%) by 1 μM Z36-MP5 [1]: −44.26% | Inhibition (%) by 1 μM Z36-MP5 (PSMC3): 5.71% | Inhibition (%) by 1 μM Z36-MP5 (HDDC3; HDDC3, SEQ ID NO: 90, ATP BS): 1.23% | Inhibition (%) by 1 μM Z36-MP5 (HDDC3; HDDC3, SEQ ID NO: 91, ATP BS): 17.25% | Inhibition (%) by 1 μM Z36-MP5 (SNRNP200): −14.27% | Inhibition (%) by 1 μM Z36-MP5 (NTPCR): −14.99% | Inhibition (%) by 1 μM Z36-MP5 (ABCB6): 8.49% | Inhibition (%) by 1 μM Z36-MP5 [2]: −15.29% | Inhibition (%) by 1 μM Z36-MP5 (EPRS): 0.78% | Inhibition (%) by 1 μM Z36-MP5 (PEX1): −4.27% | Inhibition (%) by 1 μM Z36-MP5 (AHCY): −10.85% | Inhibition (%) by 1 μM Z36-MP5 (HYOU1; HYOU1, SEQ ID NO: 109, ATP BS): −13.34% | Inhibition (%) by 1 μM Z36-MP5 (HYOU1; HYOU1, SEQ ID NO: 110, ATP BS): −6.78% | Inhibition (%) by 1 μM Z36-MP5 (GART; SEQ ID NO: 80, ATP BS): −8.85% | Inhibition (%) by 1 μM Z36-MP5 (GART; SEQ ID NO: 81, ATP BS): −7.56% | Inhibition (%) by 1 μM Z36-MP5 (GART; SEQ ID NO: 82, ATP BS): −2.13% | Inhibition (%) by 1 μM Z36-MP5 (LIG1): −7.76%
